Source: patent US5561042A, “Diamine platinum naphthalimide complexes as antitumor agents” (Cancer Therapy and Research Center, priority 1995, dated 1996)
In brackets after ≈: the same amount, converted by molar mass. Entries after “also recorded” stand apart in the source; their conditions may differ.

Key:
DNA = experiment: Ethidium bromide displacement, DNA binding in general
Experimental: (§1) The binding of the bis-naphthalimides to DNA and to synthetic polynucleotide duplexes was determined by an ethidium bromide displacement assay that measures the reduction of fluorescence when ethidium bromide is displaced from DNA (Baguley, 1981). The fluorescence intensity of a 3 ml solution containing 9.3 mM NaCl, 2 mM Tris-HCl (pH 7.0), 100 μM EDTA, 1 μM DNA (in nucleotides) and 1.26 μM ethidium bromide in a quartz cuvette was measured at the excitation (546 nm) and emission (600 nm) wavelengths on a Shimadzu RF5000U spectrofluorometer. Graded concentrations of agent were then added and the fluorescence intensity was measured. The concentration of compound required to reduce the fluorescence intensity by 50% of that of control (FI50) was determined. Therefore, the lower the FI50 the stronger the binding affinity a particular compound has for DNA.
The ability of bis-naphthalimides of the present invention and the known anti-cancer agents compound 22 and DMP840, (R,R)-2,2'[1,2-ethanediylbis[imino(1-methyl-2,1-ethanediyl)]]-bis[5-nitro- 1H benz[de]isoquinoline-1,3-(2H)dione]dimethanesulfonate, to bind to DNA and to synthetic oligonucleotide duplexes was measured using an ethidium bromide displacement assay. Ethidium bromide, a known DNA intercalator, has no fluorescence in the absence of DNA; however, fluorescence intensity increases when ethidium bromide binds to DNA. […]

B16 murine melanoma = experiment: B16 melanoma in vivo, survival of B6D2F1 mice; conditions: for 60-Day Survivors / Wt. Ch. (%) (Day 7) / T/C: q.d. × 5, i.p.; for T/C: mean survival treated/control
Experimental: B6D2F1 mice received i.p. inocula of B16 murine melanoma brei prepared from B16 tumors growing subcutaneously in mice (day 0). On day 1, rumored mice were treated with drugs or vehicle control; the route of drug administration and schedule were selected as appropriate for the study in question. If dosing information for agents was not available, the maximum tolerated dose (MTD) was determined in initial dose finding experiments in non-tumored mice. In a typical experiment, drugs were given at their MTD and 1/2 MTD doses i.p. on a daily×5 schedule.
The mean survival times of all groups were calculated, and results were expressed as mean survival of treated mice/mean survival of control mice (T/C)×100%. A T/C value of 150 means that the mice in the treated group lived 50% longer than those of the control group; this is sometimes referred to as the increase in life space, or ILS value.
Mice that survived for 60 days were considered long term survivors, or cures, in the B16 model. The universally accepted cut-off for activity in this model, which has been used for years by the National Cancer Institute, is T/C=125.
Statistics were performed on the data using primarily the log rank p-value test.

Lambda DNA = experiment: Ethidium bromide displacement, lambda DNA; type: binding; conditions: 1 μM DNA, 1.26 μM ethidium bromide, pH 7.0, read-out: FI50, Lambda DNA
Experimental: (§2) A 10× Binding solution was prepared by combining 0.93 ml of an aqueous NaCl solution (5M), 2.0 ml of an aqueous Tris HCl (500 mM) solution, 0.1 ml of an EDTA solution (500 mM) and 46.97 ml of water. The resultant solution was 93 mM in NaCl, 20 mM in Tris HCl, and 1 mM in EDTA. Stock DNA solution were prepared as follows: Poly (dG·dC)-(dG·dC) (ε254=8.4/mM; 27-7910-02), poly(dA·dT)-(dA·dT) (ε262=6.6/mM; 27-7870-02), and lambda DNA (ε260-7.0/mM; 27-4111-01) were purchased from Pharmacia. Solutions were prepared by resuspending either poly (dG·dC)-(dG·dC) or poly(dA·dT)-(dA·dT)in 1 ml of 10× DNA Binding Solution. Lambda DNA is already in solution as purchased.
(§3) Poly (dG·dC)-(dG·dC), poly(dA·dt)-(dA·dt) and lambda DNA concentrations were determined as follows: 980 μl of 10× DNA Binding Solution was pipetted into a 1 ml cuvette. A blank was run on the UV spectrophotometer. 20 μl of the DNA stock of unknown concentration was then added into the cuvette. The sample was then scanned between 210 nm to 500 nm and the absorbance recorded at 254 nm for poly(dG·dC)-(dG·dC), at 262 nm for poly(dA·dT)-(dA·dT) and at 260 nm for lambda DNA. The solution was transferred to a clean tube. This procedure was followed for three different solutions with the absorbance taken as the average of the three. The concentration of poly(dG·dC)-(dG·dC) stock was calculated to be A254 /8.4×1000 (in μM). The concentration of poly(dA·dT)-(dA·dT) stock was calculated to be A262 /6.6×1000 (in μM). The concentration of lambda DNA stock was calculated to be A260 /7.0×1000 (in μM).
as §1
(§4) The ability of bis-naphthalimides of the present invention and the known anti-cancer agents compound 22 and DMP840, (R,R)-2,2'[1,2-ethanediylbis[imino(1-methyl-2,1-ethanediyl)]]-bis[5-nitro- 1H benz[de]isoquinoline-1,3-(2H)dione]dimethanesulfonate, to bind to DNA and to synthetic oligonucleotide duplexes was measured using an ethidium bromide displacement assay. Ethidium bromide, a known DNA intercalator, has no fluorescence in the absence of DNA; however, fluorescence intensity increases when ethidium bromide binds to DNA. The ethidium bromide displacement assay measures the decrease in fluorescence intensity caused by DNA-bound ethidium bromide with DNA interacting agents.

[1] = system: poly (dG.dC) - poly (dG.dC); experiment: Ethidium bromide displacement, poly(dG.dC)-poly(dG.dC); type: binding; conditions: for Ratio (AT/GC): FI50 poly(dA.dT)-poly(dA.dT) / FI50 poly(dG.dC)-poly(dG.dC); for IC50: ethidium bromide displacement, 1 μM DNA, 1.26 μM ethidium bromide, pH 7.0, read-out: FI50, poly (dG.dC) - poly (dG.dC)
Experimental: as §2, §3, §1, §4

[2] = target: poly (dA.dT) - poly (dA.dT); experiment: Ethidium bromide displacement, poly(dA.dT)-poly(dA.dT); type: binding; conditions: 1 μM DNA, 1.26 μM ethidium bromide, pH 7.0, read-out: FI50, poly (dA.dT) - poly (dA.dT)
Experimental: as §2, §3, §1, §4

[3] = system: Murine B16 melanoma cell line; experiment: In vitro growth inhibition (MTT), B16 melanoma; type: cell-based; conditions: for IC50: Mus musculus, B16, 72 h, MTT, 3 days
Text: (§5) P388 murine leukemic cell line was obtained from the DCT Tumor Repository (National Cancer Institute, Frederick Cancer Research and Development, Frederick Md. 21702). HT29 Human Colon Carcinoma cell line was obtained from the American Type Culture Collection (12301 Parklawn Drive, Rockville, Md. 20852). B16 Melanoma cell line was obtained from DuPont Merck Pharmaceutical Company (Glenolden, Pa. 19036). MCF-7 Human Breast Carcinoma cell line was a gift from Dr. K. Osborne (Department of Medicine, The University of Texas Health Science Center at San Antonio, San Antonio, Tex. 78284). All cell lines were incubated at 37° C. in a humidified atmosphere of 5% CO2 -95% air. Murine B16 melanoma cell line was grown in RPMI 1640 medium supplemented with 10% heat-inactivated fetal bovine serum, 2 mM L-glutamine, 50 units/ml penicillin, 50 μg/ml streptomycin, 25 μg/ml gentamycin, 0.75% sodium bicarbonate, 10 mM HEPES buffer (pH 7.4), and 0.06 mg/ml AntiPPLO. Murine P388 leukemic and the human HT-29 colon adenocarcinoma cell lines were maintained in RPMI 1640 medium supplemented with 10% heat-inactivated fetal bovine serum. MCF-7M human breast adenocarcinoma was maintained in IMEM medium supplemented with 5% non heat-inactivated fetal bovine serum and 1 nM insulin.
(§6) Exponentially growing cells (1-2×10^3 cells, unless specified otherwise) in 0.1 ml medium were seeded on day 0 in a 96-well microtiter plate. On day 1, 0.1 ml aliquots of medium containing graded concentrations of test compounds were added in duplicate to the cell plates. After incubation at 37° C. in a humidified incubator for 3 days (P388, B16) or 6 days (HT-29, MCF-7M), the plates were centrifuged briefly and 100 μl of the growth medium was removed. Cell cultures were incubated with 50 μl of 3-(4,5-dimethylthiazol-2-yl)-2,5-diphenyl-tetrazolium bromide [MTT, 1 mg/ml in Dulbecco's phosphate buffered saline (PBS)] for 4 hr at 37° C. The resulting purple formazan precipitate was solubilized with 200 μl of 0.04N HCl in isopropyl alcohol. Absorbance was monitored in a BioRad Model 3550 Microplate Reader at a test wavelength of 570 nm and a reference wavelength of 630 nm. The absorbance was transferred to a PC 486 computer. The IC50 values were determined by a computer program (EZ-ED50) that fit all of the data to the following four-parameterlogistic equation:
(§7) Y=((Am -Ao)/(1+(X/IC50)^n))+Ao
(§8) where Am is the absorbance of control cells, Ao is the absorbance of cells in the presence of highest agent concentration, Y is the observed absorbance, X is the agent concentration, IC50 is the concentration of agent that inhibits the cell growth by 50% of control cells (based on the absorbance) and n is the slope of the curve.

[4] = system: P388 murine leukemic cell line; experiment: In vitro growth inhibition (MTT), P388 leukemia; type: cell-based; conditions: Mus musculus, P388, 72 h, 3 days
Text: as §5, §6, §7, §8

[5] = system: MCF-7 Human Breast Carcinoma cell line; experiment: In vitro growth inhibition (MTT), MCF-7 breast carcinoma; type: cell-based; conditions: Homo sapiens, MCF7, 144 h, 6 days
Text: as §5, §6, §7, §8

[6] = cited from earlier work
[7] = system: MX-1 human breast carcinoma; conditions: in vivo; cited from earlier work
[8] = system: DLD-2 human colon adenocarcinoma; conditions: in vivo; cited from earlier work
LX-1 lung carcinoma = conditions: in vivo; cited from earlier work
[9] = system: solid tumor xenografts, human and murine leukemia, doxorubicin resistant cell lines, colon carcinoma cells; conditions: cited from earlier work
[10] = in vivo; cited from earlier work
[11] = human, in vivo; cited from earlier work
[12] = human, in vivo; cited from earlier work; remark: listed apart in the source
topoisomerase II = conditions: cited from earlier work

**Q.** Which results are given for O=C1c2cccc3cc([N+](=O)[O-])cc(c23)C(=O)N1CCNCCOCCN1C(=O)c2cccc3cc([N+](=O)[O-])cc(c23)C1=O [Compound 6]?
**A.** DNA binding (in words) (DNA): dose-dependent decrease in fluorescence intensity; 60-Day Survivors (B16 murine melanoma; 15 mg/kg): 0; Wt. Ch. (%) (Day 7) (B16 murine melanoma; 15 mg/kg): -7.4%; T/C (B16 murine melanoma; 15 mg/kg): 210%; 60-Day Survivors (B16 murine melanoma; 30 mg/kg): 0; Wt. Ch. (%) (Day 7) (B16 murine melanoma; 30 mg/kg): -16.4%; T/C (B16 murine melanoma; 30 mg/kg): 233%; activity against B16 melanoma in vivo (in words) (B16 murine melanoma; mouse, in vivo): potent activity against B16 melanoma in vivo; also recorded: remarkable activity; also recorded: more active in this model than DMP840, compounds 22 and 23, and cytoxan; also recorded: more effective against B16 melanoma compared with DMP840

**Q.** With O=C1c2cccc3cc([N+](=O)[O-])cc(c23)C(=O)N1CCOCCOCCN1C(=O)c2cccc3cc([N+](=O)[O-])cc(c23)C1=O [Compound 19, 5-[2-(3-Nitronaphthalene-1,8-dicarboximido)ethoxy]-1-(3-nitronaphthalene-1,8-dicarboximido)-3-oxapentane] as the compound, how does the IC50 (Lambda DNA) read?
**A.** 56000 nM

**Q.** What about the “Ratio (AT/GC)” value [1] of the same compound?
**A.** 1.7

**Q.** And the IC50 [1]?
**A.** 49000 nM

**Q.** What about the IC50 [2] of the same compound?
**A.** 83000 nM

**Q.** And the “anticancer activity against B16 melanoma in vitro (in words)” value [3]?
**A.** potent anticancer activity against this melanoma type

**Q.** What about the IC50 [3] of the same compound?
**A.** 51 nM

**Q.** What about the “DNA binding (in words)” value (DNA) of the same compound?
**A.** did not bind to DNA

**Q.** With C[C@H](CNCCNC[C@@H](C)N1C(=O)c2cccc3cc([N+](=O)[O-])cc(c23)C1=O)N1C(=O)c2cccc3cc([N+](=O)[O-])cc(c23)C1=O [DMP840, (R,R)-2,2'[1,2-ethanediylbis[imino (1-methyl-2,1-ethanediyl)]]-bis[5-nitro-1H-benz[de]isoquinoline-1,3-(2H)-dione]dimethanesulfonate] as the compound, how does the IC50 (Lambda DNA) read?
**A.** 73 nM

**Q.** And the “Ratio (AT/GC)” value [1]?
**A.** 35.2

**Q.** And the IC50 [1]?
**A.** 92 nM

**Q.** What about the IC50 [2] of the same compound?
**A.** 3280 nM

**Q.** What about the IC50 [4] of the same compound?
**A.** 6 nM

**Q.** And the IC50 [3]?
**A.** 27 nM

**Q.** What about the IC50 [5] of the same compound?
**A.** 7 nM

**Q.** What about the water solubility [6] of the same compound?
**A.** 3400 µg/mL (≈ 5.44 mM)

**Q.** And the “anti-tumor activity, MX-1 (in words)” value [7]?
**A.** anti-tumor efficacy in vivo

**Q.** And the “anti-tumor activity, DLD-2 (in words)” value [8]?
**A.** anti-tumor efficacy in vivo

**Q.** What about the “anti-tumor efficacy, LX-1 (in words)” value (LX-1 lung carcinoma) of the same compound?
**A.** anti-tumor efficacy in vivo

**Q.** And the “anti-tumor efficacy in vivo (in words)” value [9]?
**A.** anti-tumor efficacy in vivo

**Q.** What about the “irreversible toxicities (in words)” value [10] of the same compound?
**A.** no irreversible toxicities

**Q.** What about the “60-Day Survivors” value (B16 murine melanoma; 5 mg/kg) of the same compound?
**A.** 0

**Q.** And the “Wt. Ch. (%) (Day 7)” value (B16 murine melanoma; 5 mg/kg)?
**A.** +4.6%

**Q.** What about the T/C (B16 murine melanoma; 5 mg/kg) of the same compound?
**A.** 156%

**Q.** What about the “60-Day Survivors” value (B16 murine melanoma; 10 mg/kg) of the same compound?
**A.** 0

**Q.** And the “Wt. Ch. (%) (Day 7)” value (B16 murine melanoma; 10 mg/kg)?
**A.** -0.33%

**Q.** What about the T/C (B16 murine melanoma; 10 mg/kg) of the same compound?
**A.** 179%

**Q.** With COc1cccc2c1C(=O)c1c(O)c3c(c(O)c1C2=O)C[C@@](O)(C(=O)CO)C[C@@H]3O[C@H]1C[C@H](N)[C@H](O)[C@H](C)O1 [Doxorubicin] as the compound, how does the “cardiomyopathy (in words)” value [11] read?
**A.** unusual cardiomyopathy

**Q.** With O=C1c2c(O)cccc2-c2nn(CCNCCO)c3ccc(NCCNCCO)c1c23 [DuP 941] as the compound, how does the “clinical anti-tumor activity (in words)” value [12] read?
**A.** exhibit clinical anti-tumor activity

**Q.** With CN(C)CCN1C(=O)c2cccc3cc(N)cc(c23)C1=O [amonafide] as the compound, how does the “inhibition of topoisomerase II (in words)” value (topoisomerase II) read?
**A.** inhibit topoisomerase II

**Q.** Which “clinical anti-tumor activity (in words)” value [12] does the source give for COc1cc(NS(C)(=O)=O)ccc1Nc1c2ccccc2nc2ccccc12 [amsacrine] here?
**A.** exhibit clinical anti-tumor activity

**Q.** Which “cardiomyopathy (in words)” value [11] does the source give for COc1cccc2c1C(=O)c1c(O)c3c(c(O)c1C2=O)C[C@@](O)(C(C)=O)C[C@@H]3O[C@H]1C[C@H](N)[C@H](O)[C@H](C)O1 [daunorubicin] here?
**A.** unusual cardiomyopathy
